Series [1] has as its target T1, DNA polymerase eta (Homo sapiens, UniProt Q9Y253).
T1 sequence (Q9Y253 whole entry): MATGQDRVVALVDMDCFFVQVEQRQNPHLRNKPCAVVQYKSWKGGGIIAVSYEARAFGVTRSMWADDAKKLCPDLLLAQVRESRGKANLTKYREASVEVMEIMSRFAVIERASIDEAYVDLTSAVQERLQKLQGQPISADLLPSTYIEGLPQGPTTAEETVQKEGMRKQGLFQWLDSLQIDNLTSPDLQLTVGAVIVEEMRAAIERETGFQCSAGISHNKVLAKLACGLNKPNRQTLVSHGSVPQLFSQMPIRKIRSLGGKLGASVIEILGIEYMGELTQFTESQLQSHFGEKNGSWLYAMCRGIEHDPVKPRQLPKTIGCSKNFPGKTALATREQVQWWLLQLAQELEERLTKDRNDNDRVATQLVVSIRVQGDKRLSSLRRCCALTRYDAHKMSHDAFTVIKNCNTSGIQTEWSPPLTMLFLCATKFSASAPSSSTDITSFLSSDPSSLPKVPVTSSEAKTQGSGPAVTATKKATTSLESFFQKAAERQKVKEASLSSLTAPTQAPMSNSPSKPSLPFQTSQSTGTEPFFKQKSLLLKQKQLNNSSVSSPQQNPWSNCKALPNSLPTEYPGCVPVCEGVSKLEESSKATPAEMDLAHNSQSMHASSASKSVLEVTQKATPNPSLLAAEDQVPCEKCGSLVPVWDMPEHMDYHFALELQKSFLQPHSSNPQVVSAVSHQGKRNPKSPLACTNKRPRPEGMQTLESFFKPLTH
Kind of series: Inhibition of C-terminal 6xHis-tagged human DNA polymerase eta (1 to 511 residues) expressed in Escherichia coli BL21 DE3 using 5'-IRD700-GCAGGTCGACTCCAAAG-3' primer/ 5'-TCGGTACCGGGTTAGCCTTTGGAGTCGACCTGC-3' template as DNA substrate incubated for 60 mins in presence of Mg2+ by bromophenol blue staining based assay.

The target in series [2] is T1, DNA polymerase eta. The series can be described thus: Inhibition of 6xHis-tagged human DNA polymerase eta (1 to 437 residues) expressed in Escherichia coli BL21 DE3 assessed as displacement of reporter strand using 5'-TTT TTT TTG C-TAMRA-3' reporter/5'-TCA CCC TCG TAC GAC TCT T-3' primer/5'-BHQ2-GCAAAAAAAAAAGAGTCGTACGAGGGTGA-3' template of 1:1.5:1.5 as DNA substrate preincubated for 5 to 10 mins followed by substrate addition measured immediately in presence of dTTP/MgCl2 by fluorescence based assay.

The target of series [3] is T2, DNA polymerase eta (Homo sapiens) (UniProt Q9Y253).
T2 sequence (whole entry): T1 sequence (Q9Y253 whole entry)
Kind of series: Inhibition of C-terminal 6xHis-tagged human DNA polymerase eta (1 to 511 residues) expressed in Escherichia coli BL21 DE3 using 5'-IRD700-GCAGGTCGACTCCAAAG-3' primer/ 5'-TCGGTACCGGGTTAGCCTTTGGAGTCGACCTGC-3' template as DNA substrate at 100 uM incubated for 60 mins in presence of Mg2+ by bromophenol blue staining based assay relative to control.

Series [4] has as its target T2, DNA polymerase eta (Homo sapiens). The series can be described thus: Inhibition of C-terminal 6xHis-tagged human DNA polymerase eta (1 to 511 residues) expressed in Escherichia coli BL21 DE3 using 5'-IRD700-GCAGGTCGACTCCAAAG-3' primer/ 5'-TCGGTACCGGGTTAGCCTTTGGAGTCGACCTGC-3' template as DNA substrate at 1 uM incubated for 60 mins in presence of Mg2+ by bromophenol blue staining based assay relative to control.

The nature of series [5]: Metabolic stability in mouse liver microsome assessed as half life at 4.6 uM incubated upto 60 mins by LC/MS-MS analysis. It counts as ADME. The note with it: liver microsomes. In general terms: Liver microsomes are a subcellular fraction often used to study metabolism.
The nature of series [6]: Kinetic solubility of compound in neutral buffer at pH 7.4 at 250 uM measured after 24 hrs by UPLC/MS analysis. Format: physicochemical. Particulars: read-out: Kinetic_solubility.
Series [7] in a line: Metabolic stability in mouse plasma assessed as half life at 2 uM incubated upto 120 mins by UPLC/MS analysis. It counts as ADME, cell-free.
The target in series [8] is T1, DNA polymerase eta. The series can be described thus: Inhibition of human DNA polymerase eta (1 to 437 residues) using 5'-TTT TTT TTG C-TAMRA-3' reporter/5'-(FAM-TTT)-GGGGGAAGGATTC-3' primer/5'-TCACGGAATCCTTCCCCC-3' template as DNA substrate preincubated for 5 to 10 mins followed by DNA substrate addition measured immediately in presence of dTTP/MgCl2 by fluorescence based assay.

Series [9] can be described thus: Inhibition of DNA polymerase (unknown origin). More on the design: species or system Homo sapiens.

For orientation: IC50 means the concentration needed to halve the response being measured. One may read the inhibition as the percentage by which the read-out fell short of the control. One may read the half-life as the time needed for the level to fall by half in the phase considered.

In brackets after ≈: the same amount, converted by molar mass.

Regarding `O=c1c(OCCO)c(-c2ccc(O)c(O)c2)oc2cc(O)cc(O)c12`, the IC50 in series [1] amounted to 87.5 µM. `COc1cccc2oc(-c3ccc(O)cc3C)cc(=O)c12`: in series [1], the IC50 was determined as 98.3 µM. Regarding `COc1c(-c2ccc(O)cc2)oc2cc(O)cc(O)c2c1=O` [ISOKAEMPFERIDE], the 50% inhibitory concentration (IC50) in series [1] was 16.1 µM. On to `Cc1c(-c2ccc(O)c(O)c2)oc2cc(O)cc(O)c2c1=O`, for which the IC50 in series [1] was 84.6 µM. Consider `CCCc1c(-c2ccc(O)c(O)c2)oc2cc(O)cc(O)c2c1=O`, for which, in series [1], the IC50 came to 87.1 µM. On the same count and under the same terms, the result for `COc1cccc2oc(-c3ccccc3F)cc(=O)c12` reads more than 100 µM.

For `O=C1NC(=S)NC(=O)C1=Cc1cn(C(=O)c2ccc3ccccc3c2)c2ccc(Cl)cc12`, in series [2], the IC50 amounted to 16 µM. In the case of `CCOc1c(-c2ccc(O)c(O)c2)oc2cc(O)cc(O)c2c1=O`, the IC50 in series [1] stood at 33.5 µM. `Cc1cc(=O)c2c(CC(=O)CC(O)CC(=O)O)cccc2o1` (racemic): the inhibition in [3] worked out at 100%; in series [4], 22.8%.

As to `COc1cc(O)cc2oc(-c3ccc(O)c(O)c3)cc(=O)c12`, the IC50 in series [1] is 10.2 µM. Also, the half-life at 4.6 µM in series [5] was more than 1 h. The solubility kinetic at 24 h, 250 µM in [6] was 87 µM (≈ 26.1 µg/mL). Moreover, the half-life at 2 µM in [7] was more than 2 h. The like results for `O=c1cc(-c2ccccc2)oc2cc(O)c(O)c(O)c12` [BAICALEIN] were, in that order, 11.8 µM, 0.683 h, 12 µM (≈ 3.24 µg/mL) and more than 2 h. As to `COc1ccc(-c2cc(=O)c3c(OC)c(OC)c(OC)cc3o2)cc1OC` [SINENSETIN], in series [1], the IC50 is more than 100 µM. The same measure, in the same setting: in the case of `O=c1cc(/C=C/c2ccc(O)c(O)c2)oc2cccc(O)c12` it was more than 100 µM. For `O=c1cc(-c2ccc(O)c(O)c2)oc2cc(F)cc(O)c12`, the IC50 in series [1] stood at 13.8 µM. In addition, the half-life at 4.6 µM in series [5] is more than 1 h. In series [6], the solubility kinetic at 24 h, 250 µM is less than 1 µM. Also, the half-life at 2 µM in series [7] is more than 2 h. Consider `O=c1cc(-c2ccc(O)c(O)c2)oc2cc(O)cc(O)c12` [LUTEOLIN], for which, in series [1], the half-inhibitory concentration (IC50) was found to be 12.7 µM. For the same molecule, the values for the inhibition in [3] and in series [4] were 95% and 49.9%, respectively. In addition, the half-life at 4.6 µM in series [5] was more than 1 h. For the same molecule, the solubility kinetic at 24 h, 250 µM in [6] is 21 µM (≈ 6.01 µg/mL). Also, in series [7], the half-life at 2 µM is more than 2 h. In the case of `O=C(O)c1cc(-c2cc(=O)c3c(O)cc(O)cc3o2)ccc1O`, the IC50 in series [1] came out at 7.7 µM. Take `O=C1NC(=S)NC(=O)C1=Cc1cn(Cc2ccc3ccccc3c2)c2ccc(Cl)cc12`: the IC50 in series [8] was 8 µM. Take `COc1cc(O)c2c(=O)cc(-c3ccc4c(c3)OC(F)(F)O4)oc2c1`: the IC50 in series [1] is more than 100 µM. As for `O=c1cc(-c2ccc(O)c(O)c2)oc2cccc(O)c12`, the concentration for half-maximal inhibition (IC50) in [1] stood at 8.7 µM. Also, the half-life at 4.6 µM in series [5] was more than 1 h. Moreover, the solubility kinetic at 24 h, 250 µM in [6] turned out to be 9 µM (≈ 2.43 µg/mL). For the same molecule, the half-life at 2 µM in series [7] was more than 2 h. With `O=c1cc(-c2ccc(O)c(O)c2)oc2ccccc12`, in [1], the concentration for half-maximal inhibition (IC50) was found to be 30.5 µM. `O=c1cc(-c2ccc3c(c2)OC(F)(F)O3)oc2cc(O)cc(O)c12`: the IC50 in [1] is more than 100 µM.

`O=C(Nc1ccc(O)c(O)c1)c1cc(=O)c2c(O)cccc2o1`: in series [1], the IC50 came out at 26.5 µM.

With `O=c1c(O)c(-c2ccc(O)c(O)c2)oc2cc(O)cc(O)c12` [QUERCETIN], the IC50 in [1] worked out at 15.8 µM. In [5], the half-life at 4.6 µM was more than 1 h. Further, the solubility kinetic at 24 h, 250 µM in [6] is 16 µM (≈ 4.84 µg/mL). Also, the half-life at 2 µM in series [7] was 0.117 h. As for `CCCCc1c(-c2ccc(O)c(O)c2)oc2cc(O)cc(O)c2c1=O`, in series [1], the IC50 is more than 100 µM. Same read-out and setting: in the case of `COc1cccc2oc(-c3ccccc3C)cc(=O)c12` it was more than 100 µM. Consider `O=C(O)CCc1cc(=O)c2c(O)cc(O)cc2o1`, for which the half-maximal inhibitory concentration (IC50) in [1] was more than 100 µM. With `O=c1cc(-c2ccccc2)oc2cc(O)cc(O)c12` [CHRYSIN], the IC50 in series [1] turned out to be 14.8 µM. On to `O=c1c(O)c(-c2ccc(O)cc2)oc2cc(O)cc(O)c12` [KAEMPFEROL], for which the IC50 in [1] is 12.7 µM.

Turning to `O=c1cc(-c2ccc(O)cc2)oc2cc(O)cc(O)c12` [APIGENIN], the half-inhibitory concentration (IC50) in series [1] was determined as 22.2 µM. In series [5], the half-life at 4.6 µM turned out to be 0.133 h. For the same molecule, the solubility kinetic at 24 h, 250 µM in series [6] is 13 µM (≈ 3.51 µg/mL). Moreover, in series [7], the half-life at 2 µM is more than 2 h. `O=c1cc(-c2cccc(O)c2)oc2cc(O)cc(O)c12`: the IC50 in series [1] amounted to 5 µM. Also, in series [5], the half-life at 4.6 µM was found to be 0.183 h. For the same molecule, in series [6], the solubility kinetic at 24 h, 250 µM was determined as 6 µM (≈ 1.62 µg/mL). Also, in series [7], the half-life at 2 µM is more than 2 h. Consider `COc1cccc2oc(-c3ccccc3C(F)(F)F)cc(=O)c12`, for which the IC50 in [1] is more than 100 µM.

On to `CCCCOc1c(-c2ccc(O)c(O)c2)oc2cc(O)cc(O)c2c1=O`, for which, in series [1], the IC50 stood at 62.4 µM. For the molecule `O=c1cc(CCc2ccc(O)c(O)c2)oc2cccc(O)c12`, the IC50 in [1] was more than 100 µM. In the case of `O=c1cc(Cc2ccc(O)c(O)c2)oc2cccc(O)c12`, the IC50 in series [1] is more than 100 µM. Turning to `O=c1c(-c2ccc(O)cc2)coc2cc(O)cc(O)c12` [GENISTEIN], in series [1], the IC50 worked out at 92.4 µM.

`O=c1cc(-c2ccc(O)c(O)c2)oc2cc(O)ccc12`: in series [1], the 50% inhibitory concentration (IC50) was 27 µM. In turn, `O=C(O)C1=CC(=C(c2ccc(O)c(C(=O)O)c2)c2ccc(O)c(C(=O)O)c2)C=CC1=O` [AURINTRICARBOXYLIC ACID] registered an IC50 in series [9] of 0.4 µM.

The values are drawn from ChEMBL document CHEMBL5325401, “Computer-aided identification, synthesis, and biological evaluation of DNA polymerase η inhibitors for the treatment of cancer” (Eur J Med Chem, 2023).
